Experimental data published in patent US9862726B2, “Opioid receptor modulating oxabicyclo[2.2.2]octane morphinans” (PURDUE PHARMA L.P., priority 2013, dated 2018).

Experiments:
[1] = biological target: recombinant human kappa opioid receptor (κ) (Homo sapiens (Human), UniProt P41145); assay: κ-opioid receptor radioligand dose-displacement binding assay (HEK-293 cells)
Procedure: Membranes from HEK-293 cells, CHO cells or U-2 OS cells expressing the recombinant human kappa opioid receptor (κ) were prepared by lysing cells in ice cold hypotonic buffer (2.5 mM MgCl2, 50 mM HEPES, pH 7.4) (10 mL/10 cm dish) followed by homogenization with a tissue grinder/Teflon pestle. Membranes from a cell line naturally expressing kappa opioid receptor can also be used. Membranes were collected by centrifugation at 30,000×g for 15 min at 4° C. and pellets were resuspended in hypotonic buffer to a final concentration of 1-3 mg/mL. Protein concentrations were determined using the BioRad protein assay reagent with bovine serum albumen as standard. Aliquots of κ receptor membranes were stored at −80° C.
Radioligand dose displacement assays used 0.4 nM [^3H]-U69,593 (GE Healthcare, Piscataway, N.J.; 40 Ci/mmole) with 15 μg membrane protein (recombinant κ opioid receptor expressed in HEK 293 cells; in-house prep) in a final volume of 200 μl binding buffer (5% DMSO, 50 mM Trizma base, pH 7.4). Non-specific binding was determined in the presence of 10 μM unlabeled naloxone or U69,593. All reactions were performed in 96-well polypropylene plates for 1 hour at a temperature of about 25° C. Binding reactions were terminated by rapid filtration onto 96-well Unifilter GF/C filter plates (Perkin Elmer, Shelton, Conn.) presoaked in 0.5% polyethylenimine (Sigma). Harvesting was performed using a 96-well tissue harvester (Perkin Elmer, Shelton, Conn.) followed by five filtration washes with 200 μl ice-cold binding buffer. Filter plates were subsequently dried at 50° C. for 1-2 hours. Fifty μl/well scintillation cocktail (Perkin Elmer, Shelton, Conn.) was added and plates were counted in a Packard Top-Count for 1 min/well.
(§1) In TABLE 3, binding affinity of certain Compounds of the Invention to the μ- and κ-opioid receptors was determined as described above using HEK-293 cells.

κ-opioid receptor [2] = biological target: T1, κ-opioid receptor (Homo sapiens (Human), UniProt P41145); assay: κ-opioid receptor [35S]GTPγS functional assay (HEK-293 cells); type: biochemical; details: for Emax: HEK-293 cells, relative to U69,593
Procedure: (§2) Functional [^35S]GTPγS binding assays were conducted as follows. κ opioid receptor membrane solution was prepared by sequentially adding final concentrations of 0.026 μg/μl κ membrane protein (in-house), 10 μg/mL saponin, 3 μM GDP and 0.20 nM [^35S]GTPγS to binding buffer (100 mM NaCl, 10 mM MgCl2, 20 mM HEPES, pH 7.4) on ice. The prepared membrane solution (190 μl/well) was transferred to 96-shallow well polypropylene plates containing 10 μl of 20× concentrated stock solutions of agonist prepared in DMSO. Plates were incubated for 30 min at a temperature of about 25° C. with shaking. Reactions were terminated by rapid filtration onto 96-well Unifilter GF/B filter plates (Perkin Elmer, Shelton, Conn.) using a 96-well tissue harvester (Packard) and followed by three filtration washes with 200 μl ice-cold binding buffer (10 mM NaH2PO4, 10 mM Na2HPO4, pH 7.4). Filter plates were subsequently dried at 50° C. for 2-3 hours. Fifty μl/well scintillation cocktail (Perkin Elmer, Shelton, Conn.) was added and plates were counted in a Packard Top-Count for 1 min/well.
(§3) κ GTP EC50 is the concentration of a compound providing 50% of the maximal response for the compound at a κ receptor.
(§4) κ GTP Emax (%) is the maximal effect elicited by a compound relative to the effect elicited by U69,593.
(§5) In TABLE 4, activity response of certain Compounds of the Invention to the μ- and κ-opioid receptors was determined as described above for functional assays using HEK-293 cells.

κ-opioid receptor [3] = biological target: T1, κ-opioid receptor; assay: κ-opioid receptor functional assay (U-2 OS cells); type: biochemical; details: for Emax: U-2 OS cells, relative to U69,593
Procedure: as §2, §3, §4
The following TABLE 5 provides results on the activity response of certain Compounds of the Invention at the μ- and κ-opioid receptors determined as described above using U-2 OS cells.

μ-opioid receptor [4] = biological target: T2, μ-opioid receptor (Homo sapiens (Human), UniProt P35372); assay: μ-opioid receptor radioligand dose-displacement binding assay (HEK-293 cells)
Procedure: Radioligand dose-displacement binding assays for μ-opioid receptors used 0.3 nM [^3H]-diprenorphine (Perkin Elmer, Shelton, Conn.), with […] membrane protein/well in a final volume of 500 μl binding buffer (10 mM MgCl2, 1 mM EDTA, 5% DMSO, 50 mM HEPES, pH 7.4). Reactions were carried out in the absence or presence of increasing concentrations of unlabeled naloxone. All reactions were conducted in 96-deep well polypropylene plates for 2 hours at room temperature. Binding reactions were terminated by rapid filtration onto 96-well Unifilter GF/C filter plates (Perkin Elmer, Shelton, Conn.), presoaked in 0.5% polyethylenimine using a 96-well tissue harvester (Perkin Elmer, Shelton, Conn.) followed by performing three filtration washes with 500 μl of ice-cold binding buffer. Filter plates were subsequently dried at 50° C. for 2-3 hours. BetaScint scintillation cocktail (Perkin Elmer, Shelton, Conn.) was added (50 μl/well), and plates were counted using a Packard Top-Count for 1 min/well. The data were analyzed using the one-site competition curve fitting functions in GraphPad PRISM™ v. 3.0 or higher (San Diego, Calif.), or an in-house function for one-site competition curve-fitting.
as §1

μ-opioid receptor [5] = biological target: T2, μ-opioid receptor; assay: μ-opioid receptor [35S]GTPγS functional assay (HEK-293 cells); type: biochemical; details: for Emax: HEK-293 cells, relative to DAMGO
Procedure: (§6) [^35S]GTPγS functional assays were conducted using freshly thawed μ-receptor membranes prepared in-house from a cell line expressing recombinant μ opioid receptor in a HEK-293, CHO or U-2 OS cell background, or purchased from a commercial source (Perkin Elmer, Shelton, Conn.; or DiscovRx, Fremont, Calif.). Assay reactions were prepared by sequentially adding the following reagents to binding buffer (100 mM NaCl, 10 mM MgCl2, 20 mM HEPES, pH 7.4) on ice (final concentrations indicated): membrane protein (0.026 mg/mL), saponin ([…]), GDP ([…]) and [^35S]GTPγS (0.20 nM; Perkin Elmer, Shelton, Conn.). The prepared membrane solution (190 μl/well) was transferred to 96-shallow well polypropylene plates containing 10 μl of 20× concentrated stock solutions of the agonist [D-Ala^2, N-methyl-Phe^4 Gly-ol^5]-enkephalin (DAMGO) prepared in dimethyl sulfoxide (DMSO). Plates were incubated for 30 min at about 25° C. with shaking. Reactions were terminated by rapid filtration onto 96-well Unifilter GF/B filter plates (Perkin Elmer, Shelton, Conn.) using a 96-well tissue harvester (Perkin Elmer, Shelton, Conn.) followed by three filtration washes with 200 μl of ice-cold wash buffer (10 mM NaH2PO4, 10 mM Na2HPO4, pH 7.4). Filter plates were subsequently dried at 50° C. for 2-3 hours. BetaScint scintillation cocktail (Perkin Elmer, Shelton, Conn.) was added (50 μl/well) and plates were counted using a Packard Top-Count for 1 min/well. Data were analyzed using the sigmoidal dose-response curve fitting functions in GraphPad PRISM v. 3.0, or an in-house function for non-linear, sigmoidal dose-response curve-fitting. [^35S]GTPγS functional assays can also be conducted using freshly thawed μ-receptor membranes prepared from a cell line expressing recombinant μ opioid receptor in a CHO-K1 cell background.
(§7) μ GTP EC50 is the concentration of a compound providing 50% of the maximal response for the compound at a μ-opioid receptor.
(§8) μ GTP Emax (%) is the maximal effect elicited by a compound relative to the effect elicited by DAMGO, a standard μ agonist.
as §5

μ-opioid receptor [6] = biological target: T2, μ-opioid receptor; assay: μ-opioid receptor functional assay (U-2 OS cells); type: biochemical; details: for Emax: U-2 OS cells, relative to DAMGO
Procedure: as §6, §7, §8

SMILES | Ki [1] [nM] | EC50 (κ-opioid receptor [2]) [nM] | Emax (κ-opioid receptor [2]) [%] | EC50 (κ-opioid receptor [3]) [nM] | Emax (κ-opioid receptor [3]) [%] | Ki (μ-opioid receptor [4]) [nM] | EC50 (μ-opioid receptor [5]) [nM] | Emax (μ-opioid receptor [5]) [%] | EC50 (μ-opioid receptor [6]) [nM] | Emax (μ-opioid receptor [6]) [%]
COc1ccc2c(c1)[C@]13CCN(CC4CC4)[C@H](C2)[C@]12CC[C@](O)(C3)C(=O)O2 [Compound 4, (4bR,6S,8aS,9R)-11-(cyclopropylmethyl)-6-hydroxy-3-methoxy-5,6,7,8,9,10-hexahydro-9,4b-(epiminoethano)-8a,6-(epoxymethano)phenanthren-15-one] | 251 ± 62.9 | 2850 ± 1190 | 92 ± 6.03 | 1110 ± 159 | 105 ± 7.02 | 6350 ± 1020 | > 20000 | 1 | – | –
O=C(N[C@]12CC[C@@]3(OC1)[C@H]1Cc4ccc(O)cc4[C@@]3(CCN1CC1CC1)C2)c1ccccc1 [Compound 27, N-((4bR,6S,8aS,9R)-11-(cyclopropylmethyl)-3-hydroxy-5,6,7,8,9,10-hexahydro-9,4b-(epiminoethano)-8a,6-(epoxymethano)phenanthren-6-yl)benzamide] | 0.062 ± 0.012 | 0.14 | 94.2 ± 2.12 | 0.028 | 93.3 ± 3.84 | 0.019 ± 0.01 | 0.58 ± 0.18 | 34.7 ± 1.45 | 0.037 ± 0.01 | 112 ± 3.51
COc1ccc2c(c1)[C@]13CCN(CC4CC4)[C@H](C2)[C@]12CC[C@@](NC(=O)C(C)(C)C)(CO2)C3 [Compound 21, N-((4bR,6S,8aS,9R)-11-(cyclopropylmethyl)-3-methoxy-5,6,7,8,9,10-hexahydro-9,4b-(epiminoethano)-8a,6-(epoxymethano)phenanthren-6-yl)pivalamide] | 0.33 ± 0.023 | 3.25 ± 0.37 | 97.3 ± 1.33 | 1.12 ± 0.056 | 111 ± 3.28 | 265 ± 77.5 | 359 ± 128 | 35 ± 4.04 | 86.8 ± 2.57 | 92.7 ± 2.91
N[C@]12CC[C@@]3(OC1)[C@H]1Cc4ccc(O)cc4[C@@]3(CCN1CC1CC1)C2 [Compound 17, (4bR,6S,8aS,9R)-6-amino-11-(cyclopropylmethyl)-5,6,7,8,9,10-hexahydro-9,4b-(epiminoethano)-8a,6-(epoxymethano)phenanthren-3-ol] | 0.096 ± 0.026 | 0.48 ± 0.02 | 75 ± 5.03 | 0.3 ± 0.032 | 106 ± 6.84 | 0.79 ± 0.19 | > 20000 | 0 | 0.65 ± 0.078 | 77 ± 1
O=C1O[C@@]23CC[C@]1(O)C[C@@]21CCN(CC2CC2)[C@@H]3Cc2ccc(O)cc21 [Compound 9, (4bR,6S,8aS,9R)-11-(cyclopropylmethyl)-3,6-dihydroxy-5,6,7,8,9,10-hexahydro-9,4b-(epiminoethano)-8a,6-(epoxymethano)phenanthren-15-one] | 0.95 ± 0.29 | 54.7 ± 7.26 | 54 ± 3.89 | 5.23 ± 0.38 | 91.7 ± 4.84 | 10.1 ± 2.46 | > 20000 | 0.5 ± 0.5 | 9.17 ± 1.18 | 63.7 ± 5.21
COc1ccc2c(c1)[C@]13CCN(CC4CC4)[C@H](C2)[C@]12CC[C@](N)(C3)C(=O)O2 [Compound 3, (4bR,6S,8aS,9R)-6-amino-11-(cyclopropylmethyl)-3-methoxy-5,6,7,8,9,10-hexahydro-9,4b-(epiminoethano)-8a,6-(epoxymethano)phenanthren-15-one] | 248 ± 54.6 | 3010 ± 274 | 79.7 ± 10.3 | 807 ± 83.2 | 99 ± 1.73 | 1330 ± 313 | 2980 ± 706 | 48.3 ± 6.01 | – | –
COc1ccc2c(c1)[C@]13CCN(CC4CC4)[C@H](C2)[C@]12CC[C@@](NC(=O)c1ccc(Cl)cc1)(CO2)C3 [Compound 20, N-((4bR,6S,8aS,9R)-11-(cyclopropylmethyl)-3-methoxy-5,6,7,8,9,10-hexahydro-9,4b-(epiminoethano)-8a,6-(epoxymethano)phenanthren-6-yl)-4-chlorobenzamide] | 0.6 ± 0.098 | – | – | 3.24 ± 0.082 | 115 ± 2.85 | 24.7 ± 3.5 | 52.4 ± 11.7 | 20.2 ± 0.48 | 3.23 ± 0.13 | 102 ± 2.85
